Measured values published in article PMC11982978, “Cancer hotspot mutations rewire ERK2 specificity by selective exclusion of docking interactions” (The Journal of Biological Chemistry, 2025).
Where two headings read alike, the source gives them in different places. Peptide text beside a SMILES is read from it.

Legend:
ERK2 R133K = target: T1, ERK2 R133K (Mus musculus, UniProt P63085, R133K); test: Competitive peptide kinase assay (D-peptide inhibition), ERK2 R133K; assay type: biochemical; conditions: 10 nM ERK2, 10 μM ATP
T1 construct: His6; made in house; host or cells: E. coli BL21(DE3), co-expressed with GST-MEK1ΔN3
Description: (§1) We determined relative binding affinities for D-peptides from their potency as competitive inhibitors of WT or mutant ERK2 activity on a D-site-dependent reporter substrate peptide (Table S1, Fig. 3A, S3).
(§2) Competitive peptide kinase assays were performed with a D-site dependent MAPK reporter substrate peptide (AssayQuant Technologies Inc, #AQT0376) as we reported previously ([15]). Briefly, 5 μM of reporter peptide was mixed with various concentrations of D-peptides in reaction buffer (54 mM HEPES [pH 7.4], 1.2 mM DTT, 0.01% Brij-35, 1% glycerol, 0.2 mg/ml BSA, and 10 mM MgCl2). […] Phosphorylation of the reporter peptide was measured by fluorescence (λex 360 nm, λem 485 nm) in 90 s intervals over 21 min in a Spectra M5 plate reader. Rates were calculated from the linear portion of the reaction progress curve, and data were normalized to maximum (samples lacking competitor peptide) and minimum (control reactions lacking kinase) values. Normalized rates were plotted against D-peptide concentration and fitted into a sigmoidal dose-response curve to determine the IC50 values using GraphPad Prism (Version 9.3.0).

ERK2 WT = target: T2, ERK2 WT (Mus musculus, UniProt P63085); test: Competitive peptide kinase assay (D-peptide inhibition), ERK2 WT; assay type: biochemical; conditions: 10 nM ERK2, 10 μM ATP
T2 construct: His6; made in house; host or cells: E. coli BL21(DE3), co-expressed with GST-MEK1ΔN3
Description: as §1, §2

ERK2 D319N = target: T3, ERK2 D319N (Mus musculus, UniProt P63085, D319N); test: Competitive peptide kinase assay (D-peptide inhibition), ERK2 D319N; assay type: biochemical; conditions: Table S1, 5 μM reporter peptide, 10 nM ERK2, 10 μM ATP, three independent experiments
T3 construct: His6; made in house; host or cells: E. coli BL21(DE3), co-expressed with GST-MEK1ΔN3
Description: as §1, §2

ERK2 E322K = target: T4, ERK2 E322K (Mus musculus, UniProt P63085, E320K); test: Competitive peptide kinase assay (D-peptide inhibition), ERK2 E322K; assay type: biochemical; conditions: 10 nM ERK2, 10 μM ATP
T4 construct: His6; made in house; host or cells: E. coli BL21(DE3), co-expressed with GST-MEK1ΔN3
Description: as §1, §2

WT ERK2 [1] = test: Y2H D-site library screen, WT ERK2; assay type: cell-based, rat; parameters: key: ES = slope of ln(Ft/F0) vs number of yeast population doublings; conditions: mutant ES is the combined average ES from the D319N and E320K screens
Description: To examine how cancer-associated CD site mutations affect the scope of ERK2 docking interactions, we adopted a Y2H strategy that we previously applied to define the D-site interactome of WT ERK2 ([15]). This system reports on interactions between ERK2 and a fragment of its substrate ELK1 that harbors a docking site essential for binding (Fig. 1C). The system thus evaluates the binding of potential sequences by substituting them for the native ELK1 docking site. We transformed Y2H strains with a bait plasmid expressing the Gal4 DNA-binding domain (DBD) fused to WT or CD mutant forms of rat ERK2 (R133K, D319N or E320K, equivalent respectively to human R135K, D321N and E322K), along with a prey plasmid expressing Gal4 activation domain (AD) fused to the ELK1 fragment harboring various docking site sequences. We then assayed these strains for growth on solid media under non-selective (+His) and selective conditions (−His) to detect interactions (Fig. 1D).
We previously used the Y2H system to screen WT ERK2 against a pooled library of 11,756 ELK1 variants incorporating potential docking sites from the human proteome ([15]). To identify interacting sequences either gained or lost upon ERK2 CD site mutation, we screened the same library against ERK2^D319N and ERK2^E320K. Yeast expressing ERK2 mutant bait plasmids were transformed with the ELK1 library pool and subjected to competitive growth under selective (−His) and non-selective conditions (+His) in parallel. Cultures were sampled periodically over ∼7 population doublings. The DNA sequence encoding the variable docking site region was PCR amplified and analyzed by next-generation sequencing (Fig. 2A, Dataset S1). The change in sequence abundance over time was fitted to an exponential function to assign an enrichment score (ES) to each docking site, where a higher ES indicates a greater increase in sequence abundance as the population grows. A significant enrichment of docking site sequences was observed only under selective conditions (Figs. 2B, S1). For each mutant, we observed generally good reproducibility across three independently conducted screens albeit with some sequences enriched in only a single replicate (Fig. S2, A and B). Average ES scores for the E320K and D319N mutant screens were better correlated with each other (R = 0.83) than were average ES scores for either mutant compared to WT ERK2 (R = 0.67 for WT versus D319N, R = 0.63 for WT versus E320K) (Fig. S2C).
To compare sequences selected by CD mutants with those selected by WT ERK2, we defined those sequences with an ES equal to or higher than three standard deviations from the mean (Z > 3) as hits. Using this cutoff, we obtained 121, 127, and 153 hits sequences from the WT, D319N, and E320K screens, respectively (Fig. 2C, Dataset S2).
Yeast harboring pGBT9-ERK2^E320K or pGBT9-ERK2^D319N were transformed with the pGADGH-ELK1 D-site library plasmid pool. Transformants (10–40 colonies per library component) were suspended in SD-Leu-Trp media, diluted to an OD600 of 0.1, and cultured in a shaking incubator at 30 °C to an OD600 of 1.0. The resulting culture was used to initiate a competitive selection screen. Cell growth, sample collection and data analysis were performed exactly as described previously for WT ERK2 ([15]). The frequency (F) of each D-site sequence at a given time point (t) was calculated by dividing the number of reads by the total read count for all sequences. For each sequence, a plot of ln(Ft/F0) as a function of the number of yeast population doublings was fit to a line, and the enrichment score (ES) for that sequence was defined as the slope of this line. Illumina sequencing reads, calculated ES, and Z scores for each screen are provided in Dataset S1.

WT ERK2 [2] = conditions: selective conditions (-His); hits Z > 3; average of three screens; cited from earlier work
Description: Supplement mmc2.xlsx, sheet "WT Hits" | column: Z-score

[3] = Table S1, 5 μM reporter peptide, three independent experiments
[4] = Table 2, 5 μM reporter peptide, mean of three independent replicates, read-out: IC50, ERK2 E322 K
[5] = Table 2, 5 μM D-site dependent reporter peptide, pH 7.4, fluorescence, mean of three independent replicates

T3 sequence (P63085 whole entry D319N): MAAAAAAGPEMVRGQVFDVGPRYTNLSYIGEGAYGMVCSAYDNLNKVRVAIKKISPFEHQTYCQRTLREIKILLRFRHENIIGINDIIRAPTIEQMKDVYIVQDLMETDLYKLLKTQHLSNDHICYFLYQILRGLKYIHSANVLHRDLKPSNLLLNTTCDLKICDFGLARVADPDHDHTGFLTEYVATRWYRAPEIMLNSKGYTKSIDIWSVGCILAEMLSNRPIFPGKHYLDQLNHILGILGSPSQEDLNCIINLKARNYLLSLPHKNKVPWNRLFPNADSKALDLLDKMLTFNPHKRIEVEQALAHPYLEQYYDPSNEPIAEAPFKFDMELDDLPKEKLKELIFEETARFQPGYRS
T2 sequence (P63085 whole entry): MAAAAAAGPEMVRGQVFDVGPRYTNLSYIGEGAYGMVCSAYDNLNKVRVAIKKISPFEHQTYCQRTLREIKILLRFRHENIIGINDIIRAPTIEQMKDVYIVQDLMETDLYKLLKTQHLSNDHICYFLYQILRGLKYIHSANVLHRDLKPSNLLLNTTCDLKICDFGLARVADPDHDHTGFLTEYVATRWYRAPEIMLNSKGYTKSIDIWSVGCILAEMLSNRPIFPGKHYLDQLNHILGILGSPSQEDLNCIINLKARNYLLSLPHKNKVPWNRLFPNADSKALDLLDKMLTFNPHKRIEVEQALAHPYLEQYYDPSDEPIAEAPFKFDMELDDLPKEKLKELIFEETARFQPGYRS
T1 sequence (P63085 whole entry R133K): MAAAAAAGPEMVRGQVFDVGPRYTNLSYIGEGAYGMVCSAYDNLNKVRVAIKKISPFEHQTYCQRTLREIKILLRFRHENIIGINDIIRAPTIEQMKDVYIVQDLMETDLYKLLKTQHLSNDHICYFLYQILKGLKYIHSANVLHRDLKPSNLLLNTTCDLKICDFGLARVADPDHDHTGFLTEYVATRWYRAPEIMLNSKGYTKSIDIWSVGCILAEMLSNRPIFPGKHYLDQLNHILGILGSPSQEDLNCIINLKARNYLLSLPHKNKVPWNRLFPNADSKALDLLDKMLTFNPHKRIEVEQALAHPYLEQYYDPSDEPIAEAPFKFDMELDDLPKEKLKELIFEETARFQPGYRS
T4 sequence (P63085 whole entry E320K): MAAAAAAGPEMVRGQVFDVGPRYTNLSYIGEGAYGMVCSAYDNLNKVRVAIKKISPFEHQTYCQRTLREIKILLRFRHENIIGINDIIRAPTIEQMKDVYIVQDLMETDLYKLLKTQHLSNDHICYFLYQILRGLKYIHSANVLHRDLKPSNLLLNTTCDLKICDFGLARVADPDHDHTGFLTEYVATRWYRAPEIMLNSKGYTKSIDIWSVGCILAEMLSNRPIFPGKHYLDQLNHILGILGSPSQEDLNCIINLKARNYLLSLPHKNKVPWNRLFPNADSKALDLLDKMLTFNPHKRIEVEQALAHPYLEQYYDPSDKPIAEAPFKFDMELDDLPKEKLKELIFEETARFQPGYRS

CC[C@H](C)[C@H](NC(=O)[C@H](CC(C)C)NC(=O)[C@@H]1CCCN1C(=O)[C@H](CCC(=O)O)NC(=O)[C@@H]1CCCN1C(=O)[C@H](CCCNC(=N)N)NC(=O)[C@@H]1CCCN1C(=O)[C@H](CCCNC(=N)N)NC(=O)[C@H](CCC(N)=O)NC(=O)[C@H](CCCCN)NC(=O)[C@@H]1CCCN1C(=O)[C@H](C)NC(=O)[C@@H](N)Cc1ccc(O)cc1)C(=O)N[C@H](C(=O)N1CCC[C@H]1C(=O)N[C@H](C(=O)O)[C@@H](C)O)[C@@H](C)CC [ELMSAN1] (H-YAPKQRPRPEPLIIPT-OH)
IC50 (ERK2 R133K; [3]): 27 µM
IC50 (ERK2 WT; [3]): 24 µM
IC50 (ERK2 D319N): 30 µM
IC50 (ERK2 E322K; [3]): 40 µM

CC[C@H](C)[C@H](NC(=O)[C@H](C)NC(=O)[C@@H](N)Cc1ccc(O)cc1)C(=O)N[C@@H](CCCNC(=N)N)C(=O)N[C@@H](C)C(=O)N[C@@H](C)C(=O)N[C@@H](CCCNC(=N)N)C(=O)NCC(=O)N[C@@H](CC(C)C)C(=O)N1CCC[C@H]1C(=O)N[C@@H](CCCNC(=N)N)C(=O)N[C@@H](CC(C)C)C(=O)N[C@@H](C)C(=O)N[C@H](C(=O)N[C@@H](CO)C(=O)N[C@@H](CC(=O)O)C(=O)O)C(C)C [ISG20 peptide R4A]
IC50 (ERK2 E322K; [4]): 300 µM

CC(C)C[C@H](NC(=O)[C@H](CC(C)C)NC(=O)[C@H](CC(C)C)NC(=O)[C@H](CCCNC(=N)N)NC(=O)[C@H](CCCCN)NC(=O)[C@@H]1CCCN1C(=O)[C@H](CCCCN)NC(=O)[C@@H]1CCCN1C(=O)CNC(=O)[C@H](CCCNC(=N)N)NC(=O)[C@H](CCCCN)NC(=O)[C@H](CCCNC(=N)N)NC(=O)[C@H](C)NC(=O)[C@@H](N)Cc1ccc(O)cc1)C(=O)N[C@@H](CCC(N)=O)C(=O)N[C@@H](CCCNC(=N)N)C(=O)O [CBX7] (H-YARKRGPKPKRLLLQR-OH)
IC50 (ERK2 R133K; [3]): 5.7 µM
IC50 (ERK2 WT; [3]): 5.1 µM
IC50 (ERK2 D319N): 9.8 µM
IC50 (ERK2 E322K; [3]): 14 µM

CC[C@H](C)[C@H](NC(=O)[C@@H](NC(=O)[C@H](CCC(=O)O)NC(=O)[C@H](CCSC)NC(=O)[C@H](CCC(N)=O)NC(=O)[C@H](CCCNC(=N)N)NC(=O)[C@H](CCCNC(=N)N)NC(=O)[C@H](CC(N)=O)NC(=O)[C@H](CCCNC(=N)N)NC(=O)[C@H](CC(C)C)NC(=O)[C@H](C)NC(=O)[C@@H](N)Cc1ccc(O)cc1)C(C)C)C(=O)N[C@@H](CO)C(=O)N[C@@H](CC(C)C)C(=O)N[C@@H](CCCNC(=N)N)C(=O)N[C@@H](CC(C)C)C(=O)O [DISC1] (H-YALRNRRQMEVISLRL-OH)
IC50 (ERK2 R133K; [3]): 74 µM
IC50 (ERK2 WT; [3]): 23 µM
IC50 (ERK2 D319N): 79 µM
IC50 (ERK2 E322K; [3]): 110 µM

CC[C@H](C)[C@H](NC(=O)[C@H](C)NC(=O)[C@@H](N)Cc1ccc(O)cc1)C(=O)N[C@@H](CCCCN)C(=O)NCC(=O)N[C@@H](CCCCN)C(=O)N[C@@H](CCCNC(=N)N)C(=O)N[C@@H](CCCNC(=N)N)C(=O)N[C@@H](CCCNC(=N)N)C(=O)N[C@@H](CCCCN)C(=O)N[C@@H](CCCCN)C(=O)N[C@@H](CC(C)C)C(=O)N[C@H](C(=O)N[C@@H](CC(C)C)C(=O)N[C@@H](C)C(=O)N[C@@H](CCCCN)C(=O)O)[C@@H](C)CC [ZBED6] (H-YAIKGKRRRKKLILAK-OH)
IC50 (ERK2 R133K; [3]): 6.2 µM
IC50 (ERK2 WT; [3]): 6.8 µM
IC50 (ERK2 D319N): 23 µM
IC50 (ERK2 E322K; [3]): 56 µM

CSCC[C@H](NC(=O)[C@H](CC(C)C)NC(=O)[C@H](C)NC(=O)[C@@H](N)Cc1ccc(O)cc1)C(=O)N[C@@H](CCC(=O)O)C(=O)N[C@@H](CCCNC(=N)N)C(=O)N[C@@H](CCCNC(=N)N)C(=O)N[C@@H](CCCNC(=N)N)C(=O)N[C@@H](CC(C)C)C(=O)N[C@@H](CC(N)=O)C(=O)N[C@@H](CCC(N)=O)C(=O)N[C@@H](CC(C)C)C(=O)N[C@@H](CC(C)C)C(=O)N[C@@H](CC(C)C)C(=O)N1CCC[C@H]1C(=O)N[C@@H](CC(C)C)C(=O)O [ANAPC5] (H-YALMERRRLNQLLLPL-OH)
IC50 (ERK2 R133K; [3]): 340 µM
IC50 (ERK2 WT; [3]): 32 µM

CC(C)C[C@H](NC(=O)[C@H](C)NC(=O)[C@@H](N)Cc1ccc(O)cc1)C(=O)NCC(=O)N[C@@H](CO)C(=O)N[C@@H](CCCNC(=N)N)C(=O)N[C@@H](CCCNC(=N)N)C(=O)NCC(=O)N[C@@H](CCCNC(=N)N)C(=O)N[C@@H](CO)C(=O)N[C@@H](CO)C(=O)N[C@@H](CC(C)C)C(=O)N[C@@H](CO)C(=O)N[C@@H](CC(C)C)C(=O)N[C@@H](C)C(=O)N[C@@H](CCCCN)C(=O)O [ARHGEF2]
IC50 (ERK2 D319N): 300 µM

RRRGRPPKRIHISQ [BAZ1A, D-site 14-mer in ELK1 Y2H prey]
WT ES - mutant ES (WT ERK2 [1]): 0.150
Z-score (ES) of hit sequences, WT ERK2 Y2H screen (WT ERK2 [2]): 4.55

CC[C@H](C)[C@H](NC(=O)[C@H](C)NC(=O)[C@@H](N)Cc1ccc(O)cc1)C(=O)NCC(=O)N[C@@H](CCCNC(=N)N)C(=O)N[C@@H](C)C(=O)N[C@@H](CCCNC(=N)N)C(=O)N[C@@H](CCCNC(=N)N)C(=O)NCC(=O)N[C@@H](CC(C)C)C(=O)N1CCC[C@H]1C(=O)N[C@@H](CCCNC(=N)N)C(=O)N[C@@H](CC(C)C)C(=O)N[C@@H](C)C(=O)N[C@H](C(=O)N[C@@H](CO)C(=O)N[C@@H](CC(=O)O)C(=O)O)C(C)C [ISG20 peptide G2+] (H-YAIGRARRGLPRLAVSD-OH)
IC50 (ERK2 WT; [5]): 120 µM
IC50 (ERK2 E322K; [4]): 170 µM

CC[C@H](C)[C@H](NC(=O)[C@H](C)NC(=O)[C@@H](N)Cc1ccc(O)cc1)C(=O)N[C@@H](CCCNC(=N)N)C(=O)N[C@@H](C)C(=O)N[C@@H](CCCNC(=N)N)C(=O)N[C@@H](CCCNC(=N)N)C(=O)NCC(=O)NCC(=O)N[C@@H](CC(C)C)C(=O)N1CCC[C@H]1C(=O)N[C@@H](CCCNC(=N)N)C(=O)N[C@@H](CC(C)C)C(=O)N[C@@H](C)C(=O)N[C@H](C(=O)N[C@@H](CO)C(=O)N[C@@H](CC(=O)O)C(=O)O)C(C)C [ISG20 peptide G7+] (H-YAIRARRGGLPRLAVSD-OH)
IC50 (ERK2 R133K; Table 2, 5 μM reporter peptide, mean of three independent replicates, read-out: IC50, ERK2 R133 K): 170 µM
IC50 (ERK2 WT; [5]): 75 µM
IC50 (ERK2 E322K; [4]): 210 µM

CC[C@H](C)[C@H](NC(=O)[C@H](C)NC(=O)[C@@H](N)Cc1ccc(O)cc1)C(=O)N[C@@H](CCCNC(=N)N)C(=O)N[C@@H](C)C(=O)N[C@@H](CCCNC(=N)N)C(=O)N[C@@H](C)C(=O)NCC(=O)N[C@@H](CC(C)C)C(=O)N1CCC[C@H]1C(=O)N[C@@H](CCCNC(=N)N)C(=O)N[C@@H](CC(C)C)C(=O)N[C@@H](C)C(=O)N[C@H](C(=O)N[C@@H](CO)C(=O)N[C@@H](CC(=O)O)C(=O)O)C(C)C [ISG20 peptide R5A]
IC50 (ERK2 E322K; [4]): 400 µM

RRMRRAGQALKLPS [HAS3, D-site 14-mer in ELK1 Y2H prey]
WT ES - mutant ES (WT ERK2 [1]): 0.310
Z-score (ES) of hit sequences, WT ERK2 Y2H screen (WT ERK2 [2]): 7.82

HLSRHKIIHIGIHT [ZNF493, D-site 14-mer in ELK1 Y2H prey]
WT ES - mutant ES (WT ERK2 [1]): 0.221
Z-score (ES) of hit sequences, WT ERK2 Y2H screen (WT ERK2 [2]): 5.90
